Columns and labels:
[1] = molecular target: T1, Ankyrin repeat and protein kinase domain-containing protein 1 (Homo sapiens) (UniProt Q8NFD2); test: Selectivity interaction (KinomeScan (DiscoverX)) EUB0000045b ANKK1
T1 sequence (whole entry): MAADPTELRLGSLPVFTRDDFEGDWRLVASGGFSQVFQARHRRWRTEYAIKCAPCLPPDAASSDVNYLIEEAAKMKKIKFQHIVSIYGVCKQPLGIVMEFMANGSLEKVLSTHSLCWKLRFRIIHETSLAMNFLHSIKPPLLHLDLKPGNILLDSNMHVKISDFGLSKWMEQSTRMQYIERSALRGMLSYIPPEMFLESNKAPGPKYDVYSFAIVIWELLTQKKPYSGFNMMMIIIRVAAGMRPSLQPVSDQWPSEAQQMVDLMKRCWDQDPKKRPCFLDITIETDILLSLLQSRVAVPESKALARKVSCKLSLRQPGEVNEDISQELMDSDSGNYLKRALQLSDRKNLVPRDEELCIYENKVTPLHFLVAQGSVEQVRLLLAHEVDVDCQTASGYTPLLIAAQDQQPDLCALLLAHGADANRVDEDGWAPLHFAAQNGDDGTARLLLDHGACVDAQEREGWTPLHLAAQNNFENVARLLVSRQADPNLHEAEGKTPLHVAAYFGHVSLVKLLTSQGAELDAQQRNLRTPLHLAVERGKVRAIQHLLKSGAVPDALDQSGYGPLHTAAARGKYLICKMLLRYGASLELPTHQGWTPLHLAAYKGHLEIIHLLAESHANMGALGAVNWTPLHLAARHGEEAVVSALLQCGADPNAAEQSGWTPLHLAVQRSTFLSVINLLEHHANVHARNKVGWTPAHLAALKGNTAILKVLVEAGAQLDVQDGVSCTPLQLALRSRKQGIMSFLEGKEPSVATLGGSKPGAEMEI

[2] = molecular target: T2, MAP/microtubule affinity-regulating kinase 4 (Homo sapiens) (UniProt Q96L34); test: Selectivity interaction (KinomeScan (DiscoverX)) EUB0000045b MARK4
T2 sequence (whole entry): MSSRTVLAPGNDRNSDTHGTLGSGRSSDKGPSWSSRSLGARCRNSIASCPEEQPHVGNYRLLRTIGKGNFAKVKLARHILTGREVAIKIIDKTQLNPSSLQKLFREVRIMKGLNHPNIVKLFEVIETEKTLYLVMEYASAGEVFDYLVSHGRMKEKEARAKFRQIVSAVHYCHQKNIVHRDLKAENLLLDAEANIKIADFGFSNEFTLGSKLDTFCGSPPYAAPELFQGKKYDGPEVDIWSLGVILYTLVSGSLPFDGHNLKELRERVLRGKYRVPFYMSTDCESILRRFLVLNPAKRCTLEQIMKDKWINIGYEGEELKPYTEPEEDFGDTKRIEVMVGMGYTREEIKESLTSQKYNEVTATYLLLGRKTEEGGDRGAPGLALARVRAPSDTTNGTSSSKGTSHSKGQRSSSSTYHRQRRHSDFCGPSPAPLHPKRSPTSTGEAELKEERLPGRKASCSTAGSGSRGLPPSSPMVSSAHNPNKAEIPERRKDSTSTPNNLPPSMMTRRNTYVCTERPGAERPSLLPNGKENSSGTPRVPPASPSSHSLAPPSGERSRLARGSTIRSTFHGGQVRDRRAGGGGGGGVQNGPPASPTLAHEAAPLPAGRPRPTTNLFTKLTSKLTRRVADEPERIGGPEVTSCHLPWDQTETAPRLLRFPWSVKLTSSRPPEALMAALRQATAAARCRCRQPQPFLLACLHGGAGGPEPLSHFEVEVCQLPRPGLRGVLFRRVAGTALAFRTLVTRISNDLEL

[3] = molecular target: Maternal embryonic leucine zipper kinase (Homo sapiens) (UniProt Q14680); test: Selectivity interaction (KinomeScan (DiscoverX)) EUB0000045b MELK
[4] = molecular target: Serine/threonine-protein kinase SIK3 (Homo sapiens) (UniProt Q9Y2K2); test: Selectivity interaction (KinomeScan (DiscoverX)) EUB0001049a SIK3; settings: at 1 µM
[5] = molecular target: Vascular endothelial growth factor receptor 1 (Homo sapiens) (UniProt P17948); test: Selectivity interaction (KinomeScan (DiscoverX)) EUB0000607a FLT1; settings: at 10 µM
[6] = molecular target: Serine/threonine-protein kinase 38 (Homo sapiens) (UniProt Q15208); test: Selectivity interaction (ActivX KiNativ screen (kinase selectivity in THP-1 cell lysates)) EUB0000639a STK38; format: subcellular; settings: lysate, at 1 µM
[7] = molecular target: T3, Serine/threonine-protein kinase TAO1 (Homo sapiens) (UniProt Q7L7X3); test: Selectivity interaction (ActivX KiNativ screen (kinase selectivity in THP-1 cell lysates)) EUB0000639a TAOK1; format: subcellular; settings: lysate
T3 sequence (whole entry): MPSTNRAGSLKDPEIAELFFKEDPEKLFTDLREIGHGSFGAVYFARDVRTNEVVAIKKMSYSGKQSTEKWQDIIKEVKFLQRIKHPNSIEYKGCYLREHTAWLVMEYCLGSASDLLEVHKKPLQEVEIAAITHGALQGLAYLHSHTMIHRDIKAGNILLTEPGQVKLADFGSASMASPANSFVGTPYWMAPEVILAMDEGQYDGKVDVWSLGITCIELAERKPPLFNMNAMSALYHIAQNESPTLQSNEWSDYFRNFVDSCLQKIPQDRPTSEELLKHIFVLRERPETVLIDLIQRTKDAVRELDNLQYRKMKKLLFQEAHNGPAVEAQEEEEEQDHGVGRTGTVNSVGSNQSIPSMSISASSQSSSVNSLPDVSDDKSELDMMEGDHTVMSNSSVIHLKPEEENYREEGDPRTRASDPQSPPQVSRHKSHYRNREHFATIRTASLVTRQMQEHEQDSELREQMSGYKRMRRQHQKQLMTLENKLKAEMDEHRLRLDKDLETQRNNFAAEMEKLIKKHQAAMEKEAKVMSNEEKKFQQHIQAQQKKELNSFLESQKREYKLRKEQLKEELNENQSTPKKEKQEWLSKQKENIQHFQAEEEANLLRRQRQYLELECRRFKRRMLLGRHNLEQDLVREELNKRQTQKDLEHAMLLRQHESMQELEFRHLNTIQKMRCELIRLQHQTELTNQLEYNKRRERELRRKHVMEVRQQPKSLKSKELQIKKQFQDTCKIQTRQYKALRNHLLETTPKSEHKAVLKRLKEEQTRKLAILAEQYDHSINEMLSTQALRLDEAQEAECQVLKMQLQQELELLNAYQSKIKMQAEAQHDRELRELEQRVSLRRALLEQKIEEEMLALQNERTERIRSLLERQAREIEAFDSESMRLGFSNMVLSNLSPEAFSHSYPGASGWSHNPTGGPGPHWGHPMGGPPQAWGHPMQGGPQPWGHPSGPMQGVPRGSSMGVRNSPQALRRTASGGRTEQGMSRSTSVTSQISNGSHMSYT

Sequence of Maternal embryonic leucine zipper kinase (Homo sapiens) (Q14680 whole entry, looked up): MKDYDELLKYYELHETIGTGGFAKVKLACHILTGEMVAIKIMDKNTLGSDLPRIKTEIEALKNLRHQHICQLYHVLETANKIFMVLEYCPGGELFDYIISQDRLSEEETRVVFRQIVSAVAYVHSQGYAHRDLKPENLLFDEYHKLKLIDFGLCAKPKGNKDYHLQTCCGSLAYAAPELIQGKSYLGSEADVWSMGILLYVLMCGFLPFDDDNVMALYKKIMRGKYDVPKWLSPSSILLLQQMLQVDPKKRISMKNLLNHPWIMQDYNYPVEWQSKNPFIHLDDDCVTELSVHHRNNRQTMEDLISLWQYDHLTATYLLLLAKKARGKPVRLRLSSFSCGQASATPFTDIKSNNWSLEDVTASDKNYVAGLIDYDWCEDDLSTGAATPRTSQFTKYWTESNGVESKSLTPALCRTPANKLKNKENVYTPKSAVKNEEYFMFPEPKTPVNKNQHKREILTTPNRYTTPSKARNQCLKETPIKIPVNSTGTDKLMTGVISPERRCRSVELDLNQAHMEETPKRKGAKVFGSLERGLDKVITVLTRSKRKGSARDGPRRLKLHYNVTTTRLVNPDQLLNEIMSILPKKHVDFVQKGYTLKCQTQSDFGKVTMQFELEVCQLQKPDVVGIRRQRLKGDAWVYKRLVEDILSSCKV
Sequence of Serine/threonine-protein kinase 38 (Homo sapiens) (Q15208 2-465 limits assumed): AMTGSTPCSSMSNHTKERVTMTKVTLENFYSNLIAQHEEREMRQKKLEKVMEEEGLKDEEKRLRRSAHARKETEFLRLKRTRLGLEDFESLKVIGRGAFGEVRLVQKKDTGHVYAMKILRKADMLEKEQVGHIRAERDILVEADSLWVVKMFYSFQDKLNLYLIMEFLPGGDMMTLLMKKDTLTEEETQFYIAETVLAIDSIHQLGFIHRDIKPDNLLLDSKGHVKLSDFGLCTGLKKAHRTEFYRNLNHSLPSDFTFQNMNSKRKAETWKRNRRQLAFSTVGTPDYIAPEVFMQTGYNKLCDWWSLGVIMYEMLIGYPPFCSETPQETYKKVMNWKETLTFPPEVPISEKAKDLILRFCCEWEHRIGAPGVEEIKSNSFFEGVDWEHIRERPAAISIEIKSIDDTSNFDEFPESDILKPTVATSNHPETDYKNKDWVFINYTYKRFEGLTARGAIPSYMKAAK
Sequence of Serine/threonine-protein kinase SIK3 (Homo sapiens) (Q9Y2K2 whole entry, looked up): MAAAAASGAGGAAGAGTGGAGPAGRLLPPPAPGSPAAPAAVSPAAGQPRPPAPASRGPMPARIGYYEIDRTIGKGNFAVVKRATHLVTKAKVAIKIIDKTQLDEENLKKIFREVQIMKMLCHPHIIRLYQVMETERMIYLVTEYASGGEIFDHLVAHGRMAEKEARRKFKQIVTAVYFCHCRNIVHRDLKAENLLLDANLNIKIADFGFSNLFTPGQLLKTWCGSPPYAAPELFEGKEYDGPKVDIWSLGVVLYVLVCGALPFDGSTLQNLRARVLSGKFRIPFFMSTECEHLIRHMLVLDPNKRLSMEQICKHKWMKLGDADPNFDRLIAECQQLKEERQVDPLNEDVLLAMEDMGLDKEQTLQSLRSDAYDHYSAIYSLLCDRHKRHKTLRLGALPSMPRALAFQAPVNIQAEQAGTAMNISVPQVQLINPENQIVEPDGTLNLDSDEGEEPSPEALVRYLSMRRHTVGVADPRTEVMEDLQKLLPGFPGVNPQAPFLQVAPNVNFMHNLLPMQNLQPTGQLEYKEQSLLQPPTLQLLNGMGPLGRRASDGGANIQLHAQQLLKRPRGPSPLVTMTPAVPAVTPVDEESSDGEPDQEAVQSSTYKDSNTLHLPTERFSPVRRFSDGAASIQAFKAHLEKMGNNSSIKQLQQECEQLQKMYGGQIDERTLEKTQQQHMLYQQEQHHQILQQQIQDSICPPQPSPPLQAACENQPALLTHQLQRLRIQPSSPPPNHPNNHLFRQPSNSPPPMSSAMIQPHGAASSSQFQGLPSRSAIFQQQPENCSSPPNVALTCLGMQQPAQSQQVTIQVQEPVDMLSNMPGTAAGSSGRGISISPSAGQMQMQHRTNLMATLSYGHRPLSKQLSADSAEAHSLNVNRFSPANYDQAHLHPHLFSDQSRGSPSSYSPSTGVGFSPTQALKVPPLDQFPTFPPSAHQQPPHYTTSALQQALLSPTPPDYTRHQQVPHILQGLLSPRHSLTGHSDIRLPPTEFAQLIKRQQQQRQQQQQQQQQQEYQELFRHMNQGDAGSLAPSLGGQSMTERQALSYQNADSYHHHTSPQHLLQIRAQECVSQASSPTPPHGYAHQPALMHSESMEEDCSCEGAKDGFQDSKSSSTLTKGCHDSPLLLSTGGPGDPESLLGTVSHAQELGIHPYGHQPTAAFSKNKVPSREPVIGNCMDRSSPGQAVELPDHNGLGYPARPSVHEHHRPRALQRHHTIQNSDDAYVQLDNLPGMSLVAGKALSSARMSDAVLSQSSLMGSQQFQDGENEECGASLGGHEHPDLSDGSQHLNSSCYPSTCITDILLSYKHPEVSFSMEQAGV
Sequence of Vascular endothelial growth factor receptor 1 (Homo sapiens) (P17948 whole entry): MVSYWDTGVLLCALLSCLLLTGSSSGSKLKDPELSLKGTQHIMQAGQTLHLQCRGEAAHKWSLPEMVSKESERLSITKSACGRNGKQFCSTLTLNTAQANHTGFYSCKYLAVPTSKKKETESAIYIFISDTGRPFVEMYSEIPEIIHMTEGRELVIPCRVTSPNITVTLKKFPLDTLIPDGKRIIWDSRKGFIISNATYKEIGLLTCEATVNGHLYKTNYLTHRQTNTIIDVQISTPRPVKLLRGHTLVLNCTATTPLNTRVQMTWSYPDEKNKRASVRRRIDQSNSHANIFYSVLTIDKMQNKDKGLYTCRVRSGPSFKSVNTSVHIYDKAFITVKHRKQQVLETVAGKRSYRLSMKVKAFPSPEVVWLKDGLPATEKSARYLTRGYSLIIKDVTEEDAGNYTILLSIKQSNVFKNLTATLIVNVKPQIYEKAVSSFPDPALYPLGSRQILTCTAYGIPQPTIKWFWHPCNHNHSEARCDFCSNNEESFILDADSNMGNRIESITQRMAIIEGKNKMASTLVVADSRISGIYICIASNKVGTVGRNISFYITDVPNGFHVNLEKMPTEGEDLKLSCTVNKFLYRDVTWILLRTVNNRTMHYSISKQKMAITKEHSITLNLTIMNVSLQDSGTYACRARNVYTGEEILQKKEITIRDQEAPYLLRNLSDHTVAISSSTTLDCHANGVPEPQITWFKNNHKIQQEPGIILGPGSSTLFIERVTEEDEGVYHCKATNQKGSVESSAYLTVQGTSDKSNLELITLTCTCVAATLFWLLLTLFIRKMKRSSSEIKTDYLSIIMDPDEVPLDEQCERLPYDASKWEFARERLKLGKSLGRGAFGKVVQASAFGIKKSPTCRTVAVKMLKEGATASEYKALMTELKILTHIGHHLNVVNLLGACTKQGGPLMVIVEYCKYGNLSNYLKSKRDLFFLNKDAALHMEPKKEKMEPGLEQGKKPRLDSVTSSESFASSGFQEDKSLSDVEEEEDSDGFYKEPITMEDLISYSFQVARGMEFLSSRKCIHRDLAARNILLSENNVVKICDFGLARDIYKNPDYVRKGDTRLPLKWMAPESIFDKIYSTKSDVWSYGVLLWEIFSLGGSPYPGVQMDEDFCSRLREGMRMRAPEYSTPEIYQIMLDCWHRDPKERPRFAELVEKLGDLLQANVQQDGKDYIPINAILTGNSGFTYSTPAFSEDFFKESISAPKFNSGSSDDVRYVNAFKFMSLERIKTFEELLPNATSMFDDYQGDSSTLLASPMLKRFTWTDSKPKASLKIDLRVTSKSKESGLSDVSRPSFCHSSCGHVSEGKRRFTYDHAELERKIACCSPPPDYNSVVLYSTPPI

Structure (SMILES): C=CC(=O)Nc1cc(-n2c(=O)ccc3cnc4ccc(-c5ccc(NS(C)(=O)=O)cc5)cc4c32)ccc1C
- % of control ([1]; at 1 µM): 100%
- % of control ([1]; at 10 µM): 77%
- % of control ([2]; at 1 µM): 80%
- % of control ([2]; at 10 µM): 76%
- % of control ([3]; at 1 µM): 100%
- % of control ([3]; at 10 µM): 75%

Structure (SMILES): COc1cc(Nc2nc(C)cc(-c3cnn4nc(OC)ccc34)n2)cc(C(F)(F)F)c1
- % of control [4]: 82%

Structure (SMILES): CNC(=O)Nc1ccc(-c2nc(N3CC4CCC(C3)O4)c3cnn(C4CCC5(CC4)OCCO5)c3n2)cc1
- % of control [5]: 92%

Structure (SMILES): CC[C@@H]1[C@H](F)C(=O)N[C@@H]1COc1nccc2cc(C(N)=O)c(OC)cc12 [ZIMLOVISERTIB]
- % of inhibition [6]: 65.8%
- % of inhibition ([7]; at 0.01 µM): 6.6%
- % of inhibition ([7]; at 0.04 µM): -1.6%
- % of inhibition ([7]; at 0.2 µM): 6.9%
- % of inhibition ([7]; at 1 µM): 12.9%
- % of inhibition ([7]; at 5 µM): 41.7%

— ChEMBL document CHEMBL5465560, “Selectivity Literature for EUbOPEN Chemogenomic Library” (2024)
